Results from PubChem BioAssay AID652053 (Broad Institute, 2013).

What follows are compounds tested on Huh7 psiCHECK-miR122 Renilla luciferase reporter, 48 h (assay: miR-122 inhibitors in Huh7 reporter cells, dose response, cell-based, Huh7 psiCHECK-miR122, Renilla luciferase, cherry-pick (AID 652053)).

In order of rising AC40:
1. CC(C)Oc1ccc(C(=O)Nc2ccc(Cl)c(S(=O)(=O)Nc3ccc(Cl)cc3)c2)cc1  0.559 µM
2. Cc1ccc(-c2nnc(Nc3ccccc3)c3ccccc23)cc1S(=O)(=O)NCC1CCCO1 (stereo not drawn)  0.63 µM
3. CCN(CC)c1ccc(NC(=O)c2cnccn2)cc1S(=O)(=O)Nc1ccc(OC)cc1  0.976 µM
4. O=S(=O)(NCCc1ccncc1)c1ccc(Br)cc1  1.15 µM
5. CC(C)C(=O)Nc1cc(S(=O)(=O)Nc2cccc(Cl)c2)ccc1Cl  1.52 µM
6. Cc1cc(C)c(C)c(S(=O)(=O)Nc2ccc(C(=O)N3CCCC3)cc2)c1C  2 µM
7. Cc1ccc(NS(=O)(=O)c2cc(-c3cc(C)no3)ccc2C(C)C)nc1  2.23 µM
8. O=S(=O)(Nc1ccc(Cl)cc1)c1ccc2c(c1)CCO2  2.26 µM
9. CCCCn1nnnc1C(c1cccc(OC)c1OC)N1CCC2(CC1)C(=O)NCN2c1ccccc1 (stereo not drawn)  2.44 µM
10. Cc1cc(C)cc(NS(=O)(=O)c2ccc3oc(=O)ccc3c2)c1  3.43 µM
11. CC(=O)Nc1ccc(S(=O)(=O)Nc2ccc3c(c2)n(C)c(=O)n3C)c(C)c1  3.94 µM
12. COc1ccc(S(=O)(=O)Nc2ccc(-c3ccc4nnc(C)n4n3)cc2)c(OC)c1  4.03 µM
13. Cc1ccccc1S(=O)(=O)N1CC[C@@H]2[C@@H](CO)N(C)c3ccc(-c4ccccc4)cc3[C@@H]21  4.05 µM
14. CCN(CC)S(=O)(=O)c1cc(NS(=O)(=O)c2cc(Cl)ccc2Cl)ccc1C  4.19 µM
15. O=C(NCc1ccco1)c1ccc(Cl)c(S(=O)(=O)Nc2ccccc2)c1  4.59 µM
16. COc1ccc(C(=O)NC(=S)Nc2ccc(S(=O)(=O)Nc3cc(OC)ncn3)cc2)cc1  4.82 µM
17. C[C@@H]1CN([C@@H](C)CO)C(=O)c2cccc(NC(=O)c3ccc(-c4nccs4)cc3)c2O[C@@H]1CN(C)Cc1ccc(C(=O)Nc2ccccc2N)cc1  4.9 µM
18. COc1ccc2oc(C(=O)N3CCc4ccccc43)c(C)c2c1  5.37 µM
19. C[C@H]1CN([C@@H](C)CO)C(=O)c2cc(N(C)C)ccc2O[C@H]1CN(C)Cc1ccc(C(=O)Nc2ccccc2N)cc1  5.42 µM
20. Cc1cccc(C(O)c2ncc(-c3ccccc3F)[nH]2)c1C (stereo not drawn)  5.74 µM
21. O=C(Cc1ccccc1)N1C[C@H]2[C@@H](c3ccccc31)[C@@H](CO)N2C(=O)C1CCCCC1  6.07 µM
22. O=C(NCCCN1CCCC1=O)c1cccc(S(=O)(=O)Nc2ccc(Br)cc2)c1  7.56 µM
23. C[C@@H]1CN([C@@H](C)CO)S(=O)(=O)c2ccc(C#CCN(C)C)cc2O[C@@H]1CN(C)Cc1ccc2c(c1)OCO2  8.29 µM
24. COc1ccc(S(=O)(=O)N(C)C[C@H]2Oc3ccc(NC(=O)Nc4ccc(C(F)(F)F)cc4)cc3C(=O)N([C@@H](C)CO)C[C@H]2C)cc1  8.41 µM
25. CC(=O)c1c(C)[nH]c(C(=O)Nc2ccc(C)c(S(=O)(=O)Nc3ccc(C)cc3C)c2)c1C  8.45 µM
26. OC(c1ccc(Cl)c(F)c1)c1ncc(-c2cccc(F)c2)[nH]1 (stereo not drawn)  9.13 µM
27. CC(C)CNS(=O)(=O)c1cc2c3c(c1)CCC(=O)N3CCC2  9.58 µM
28. O=S(=O)(c1ccccc1)c1cc(O)ccc1O  11.5 µM
29. Cc1ccc(S(=O)(=O)N(CC(=O)N2CCC(C)CC2)c2cccc(C)c2)cc1  12 µM
30. O=C(NCC1CCCO1)C(c1cccs1)N(Cc1cccs1)C(=O)Cn1nnc(-c2cccs2)n1 (stereo not drawn)  13.5 µM
31. Cc1cc(C)c(-n2nnnc2SCC(=O)c2cccs2)c(C)c1  14.9 µM
32. COc1ccc(S(=O)(=O)N(CCc2ccccc2)CC(=O)N2CCOCC2)cc1  17.1 µM
33. C[C@@H]1CN([C@H](C)CO)C(=O)c2cccc(NC(=O)Nc3ccccc3)c2O[C@@H]1CN(C)Cc1ccc(C(=O)Nc2ccccc2N)cc1  20.5 µM
34. Fc1cccc(Cn2cc(C(=S)N3CCOCC3)c3ccccc32)c1  21 µM
35. C[C@H]1CN([C@@H](C)CO)C(=O)c2cccc(NS(=O)(=O)c3ccccc3)c2O[C@@H]1CN(C)Cc1ccc(C(=O)Nc2ccccc2N)cc1  22 µM
36. CCCCn1c(NC(=O)c2ccc(Br)o2)c(S(=O)(=O)c2ccccc2)c2nc3ccccc3nc21  25.7 µM
37. CCc1ccc(NC(=O)Cc2cn(C)c3ccccc23)cc1  28.8 µM
38. CC(=O)c1c(C)[nH]c(C(=O)N(CCc2ccccc2)Cc2ccccc2)c1C  30.8 µM
